In brackets after ≈: the same amount, converted by molar mass. Like-named read-outs stand apart in the source and are kept apart here.
Columns and labels:
Assay type in all cases: cell-based
Staph. aureus Smith = assay: MIC against Staph. aureus Smith; conditions: Staphylococcus aureus
Description: (§1) The compounds (I) of this invention are clearly different from various cephem derivatives described in Japanese Patent Pre-publication ("Kokai") No. 25551/78 and U.S. Pat. No. 4,226,866 in respect of the presence of a lower alkyl group at 2-position of the cephem nucleus. […] Minimum inhibitory concentrations (M.I.C.) (μg/ml) of the compounds (I) to various bacteria are set out in Table 1 below.

Staph. aureus 209P JC-1 = assay: MIC against Staph. aureus 209P JC-1; conditions: Staphylococcus aureus
Description: as §1

Kl. pneumoniae PCI 602 = assay: MIC against Kl. pneumoniae PCI 602; conditions: Klebsiella pneumoniae, PCI602
Description: as §1

Pr. mirabilis GN79 = assay: MIC against Pr. mirabilis GN79; conditions: Proteus mirabilis
Description: as §1

S. typhimurium LT-2 = assay: MIC against S. typhimurium LT-2; conditions: Salmonella enterica
Description: as §1

Pr. vulgaris GN76 = assay: MIC against Pr. vulgaris GN76; conditions: Proteus vulgaris
Description: as §1

Pr. rettgeri GN624 = assay: MIC against Pr. rettgeri GN624; conditions: Providencia rettgeri
Description: as §1

C. freundii CN346 = assay: MIC against C. freundii CN346; conditions: Citrobacter freundii
Description: as §1

Ent. cloacae G-0006 = assay: MIC against Ent. cloacae G-0006; conditions: Enterobacter cloacae, G0006
Description: as §1

Ser. marcescens No. 2 = assay: MIC against Ser. marcescens No. 2; conditions: Serratia marcescens
Description: as §1

Ps. aeruginosa = assay: MIC against Ps. aeruginosa; conditions: Pseudomonas aeruginosa
Description: as §1

[1] = S. typhimurium LT-2, read-out: MIC
[2] = Pr. vulgaris GN76, read-out: MIC
[3] = C. freundii CN346, read-out: MIC
[4] = Ser. marcescens No. 2, read-out: MIC

C[C@H]1O[C@@H]2[C@H](NC(=O)Cc3cccs3)C(=O)N2C(C(=O)O)=C1CSc1nnnn1C [compound 1, 7-(2-Thienylacetamido)-2α-methyl-3-(1-methyl-1H--tetrazole-5-yl)thiomethyl-1-oxa-1-dethia-3-cephem-4-carboxylic acid]
MIC (Staph. aureus Smith): 0.2 mg/L (≈ 0.444 µM) | MIC (Staph. aureus 209P JC-1): 0.2 mg/L (≈ 0.444 µM) | MIC (Kl. pneumoniae PCI 602): 0.1 mg/L (≈ 0.222 µM) | MIC (Pr. mirabilis GN79): 0.1 mg/L (≈ 0.222 µM) | MIC (S. typhimurium LT-2; [1]): 0.025 mg/L (≈ 0.0555 µM) | MIC (Pr. vulgaris GN76; [2]): 0.1 mg/L (≈ 0.222 µM) | MIC (Pr. rettgeri GN624): 0.05 mg/L (≈ 0.111 µM) | MIC (C. freundii CN346; [3]): 3.13 mg/L (≈ 6.95 µM) | MIC (Ent. cloacae G-0006): 25 mg/L (≈ 55.5 µM) | MIC (Ser. marcescens No. 2; [4]): 0.1 mg/L (≈ 0.222 µM) | MIC (Ps. aeruginosa): 12.5 mg/L (≈ 27.7 µM)

C[C@@H]1O[C@@H]2[C@H](NC(=O)Cc3cccs3)C(=O)N2C(C(=O)O)=C1CSc1nnnn1C [compound 2, 7-(2-Thienylacetamido)-2β-methyl-3-(1-methyl-1H--tetrazole-5-yl)thiomethyl-1-oxa-1-dethia-3-cephem-4-carboxylic acid]
MIC (Staph. aureus Smith): 0.05 mg/L (≈ 0.111 µM) | MIC (Staph. aureus 209P JC-1): 0.025 mg/L (≈ 0.0555 µM) | MIC (Kl. pneumoniae PCI 602): 1.56 mg/L (≈ 3.46 µM) | MIC (Pr. mirabilis GN79): 12.5 mg/L (≈ 27.7 µM) | MIC (S. typhimurium LT-2; [1]): 0.1 mg/L (≈ 0.222 µM) | MIC (Pr. vulgaris GN76; GN76): 1.56 mg/L (≈ 3.46 µM) | MIC (Pr. rettgeri GN624): 12.5 mg/L (≈ 27.7 µM) | MIC (C. freundii CN346; [3]): 100 mg/L (≈ 222 µM) | MIC (Ent. cloacae G-0006): 100 mg/L (≈ 222 µM) | MIC (Ser. marcescens No. 2; [4]): 6.25 mg/L (≈ 13.9 µM) | MIC (Ps. aeruginosa): > 100 mg/L

CO[C@@]1(NC(=O)Cc2cccs2)C(=O)N2C(C(=O)O)=C(CSc3nnnn3C)[C@@H](C)O[C@@H]21 [compound 3, 7β-(2-Thienylacetamido)-7α-methoxy-2α-methyl-3-(1-methyl-1H--tetrazole-5-yl)thiomethyl-1-oxa-1-dethia-3-cephem-4-carboxylic acid]
MIC (Staph. aureus Smith): 0.39 mg/L (≈ 0.812 µM) | MIC (Staph. aureus 209P JC-1): 0.39 mg/L (≈ 0.812 µM) | MIC (Kl. pneumoniae PCI 602): 25 mg/L (≈ 52 µM) | MIC (Pr. mirabilis GN79): > 100 mg/L | MIC (S. typhimurium LT-2; TYPHIMURIUM): 1.56 mg/L (≈ 3.25 µM) | MIC (Pr. vulgaris GN76; [2]): 12.5 mg/L (≈ 26 µM) | MIC (Pr. rettgeri GN624): > 100 mg/L | MIC (C. freundii CN346; [3]): > 100 mg/L | MIC (Ent. cloacae G-0006): > 100 mg/L | MIC (Ser. marcescens No. 2; [4]): 12.5 mg/L (≈ 26 µM) | MIC (Ps. aeruginosa): > 100 mg/L

CO[C@@]1(NC(=O)Cc2cccs2)C(=O)N2C(C(=O)O)=C(CSc3nnnn3C)[C@H](C)O[C@@H]21 [compound 4, 7β-(2-Thienylacetamido)-7α-methoxy-2β-methyl-3-(1-methyl-1H--tetrazole-5-yl)thiomethyl-1-oxa-1-dethia-3-cephem-4-carboxylic acid]
MIC (Staph. aureus Smith): 0.2 mg/L (≈ 0.416 µM) | MIC (Staph. aureus 209P JC-1): 0.2 mg/L (≈ 0.416 µM) | MIC (Kl. pneumoniae PCI 602): 1.56 mg/L (≈ 3.25 µM) | MIC (Pr. mirabilis GN79): 12.5 mg/L (≈ 26 µM) | MIC (S. typhimurium LT-2; [1]): 0.05 mg/L (≈ 0.104 µM) | MIC (Pr. vulgaris GN76; [2]): 0.39 mg/L (≈ 0.812 µM) | MIC (Pr. rettgeri GN624): 25 mg/L (≈ 52 µM) | MIC (C. freundii CN346; [3]): 100 mg/L (≈ 208 µM) | MIC (Ent. cloacae G-0006): 100 mg/L (≈ 208 µM) | MIC (Ser. marcescens No. 2; NO.2): 1.56 mg/L (≈ 3.25 µM) | MIC (Ps. aeruginosa): > 100 mg/L

CO[C@@]1(NC(=O)C(C(=O)O)c2cccs2)C(=O)N2C(C(=O)O)=C(CSc3nnnn3C)[C@@H](C)O[C@@H]21 (stereo partly drawn) [compound 5, 7β-[2-(2-Thienyl)-2-carboxyacetamido]-7α-methoxy-2α-methyl-3-(1-methyl-1H--tetrazole-5-yl)thiomethyl-1-oxa-1-dethia-3-cephem-4-carboxylic acid]
MIC (Staph. aureus Smith): 0.78 mg/L (≈ 1.49 µM) | MIC (Staph. aureus 209P JC-1): 0.78 mg/L (≈ 1.49 µM) | MIC (Kl. pneumoniae PCI 602): 1.56 mg/L (≈ 2.97 µM) | MIC (Pr. mirabilis GN79): 0.78 mg/L (≈ 1.49 µM) | MIC (S. typhimurium LT-2; [1]): 0.1 mg/L (≈ 0.191 µM) | MIC (Pr. vulgaris GN76; [2]): 0.39 mg/L (≈ 0.744 µM) | MIC (Pr. rettgeri GN624): 3.13 mg/L (≈ 5.97 µM) | MIC (C. freundii CN346; [3]): 25 mg/L (≈ 47.7 µM) | MIC (Ent. cloacae G-0006): 100 mg/L (≈ 191 µM) | MIC (Ser. marcescens No. 2; [4]): 0.78 mg/L (≈ 1.49 µM) | MIC (Ps. aeruginosa): 100 mg/L (≈ 191 µM)

CO[C@@]1(NC(=O)C(C(=O)O)c2cccs2)C(=O)N2C(C(=O)O)=C(CSc3nnnn3C)[C@H](C)O[C@@H]21 (stereo partly drawn) [compound 6, 7β-[2-(2-Thienyl)-2-carboxyacetamido]-7α-methoxy-2β-methyl-3-(1-methyl-1H--tetrazole-5-yl)thiomethyl-1-oxa-1-dethia-3-cephem-4-carboxylic acid]
MIC (Staph. aureus Smith): 0.78 mg/L (≈ 1.49 µM) | MIC (Staph. aureus 209P JC-1): 0.39 mg/L (≈ 0.744 µM) | MIC (Kl. pneumoniae PCI 602): 1.56 mg/L (≈ 2.97 µM) | MIC (Pr. mirabilis GN79): 0.1 mg/L (≈ 0.191 µM) | MIC (S. typhimurium LT-2; [1]): ≤ 0.025 mg/L | MIC (Pr. vulgaris GN76; [2]): 0.1 mg/L (≈ 0.191 µM) | MIC (Pr. rettgeri GN624): ≤ 0.025 mg/L | MIC (C. freundii CN346; CN346): 1.56 mg/L (≈ 2.97 µM) | MIC (Ent. cloacae G-0006): 6.25 mg/L (≈ 11.9 µM) | MIC (Ser. marcescens No. 2; [4]): 0.2 mg/L (≈ 0.381 µM) | MIC (Ps. aeruginosa): 25 mg/L (≈ 47.7 µM)

CO[C@@]1(NC(=O)C(C(=O)O)c2ccsc2)C(=O)N2C(C(=O)O)=C(CSc3nnnn3C)[C@H](C)O[C@@H]21 (stereo partly drawn) [compound 7, 7β-[2-(3-Thienyl)-2-carboxyacetamido]-7α-methoxy-2β-methyl-3-(1-methyl-1H--tetrazole-5-yl)thiomethyl-1-oxa-1-dethia-3-cephem-4-carboxylic acid]
MIC (Staph. aureus Smith): 1.56 mg/L (≈ 2.97 µM) | MIC (Staph. aureus 209P JC-1): 1.56 mg/L (≈ 2.97 µM) | MIC (Kl. pneumoniae PCI 602): 0.05 mg/L (≈ 0.0953 µM) | MIC (Pr. mirabilis GN79): 0.2 mg/L (≈ 0.381 µM) | MIC (S. typhimurium LT-2; [1]): ≤ 0.025 mg/L | MIC (Pr. vulgaris GN76; [2]): 0.1 mg/L (≈ 0.191 µM) | MIC (Pr. rettgeri GN624): 0.05 mg/L (≈ 0.0953 µM) | MIC (C. freundii CN346; [3]): 1.56 mg/L (≈ 2.97 µM) | MIC (Ent. cloacae G-0006): 3.13 mg/L (≈ 5.97 µM) | MIC (Ser. marcescens No. 2; [4]): 0.2 mg/L (≈ 0.381 µM) | MIC (Ps. aeruginosa): 25 mg/L (≈ 47.7 µM)

From patent US4534898A, “1-Oxa-1-dethia-cephalosporin derivatives” (Merck & Co., Inc., priority 1982, dated 1985)
